Laboratory results from article PMC10895371, “Phosphorylation of the alpha-I motif in SYMRK drives root nodule organogenesis” (Proceedings of the National Academy of Sciences of the …, 2024).

Key:
[1] = target: T1, SYMRK (intracellular domain; SYMRK-WT) (Lotus japonicus, UniProt Q8LKX1, S877A/S885A/S889A/S893A); assay: nanoDSF thermal stability, […] nm fluorescence; assay type: binding; details: 1 mM ATP, 5 mM MgCl2, pH 7.5, 15 min on ice, 25 to 95 °C at 1 °C/min
T1 construct: intracellular kinase region with C-terminal alpha-I motif (intracellular domain modelled as 545-923); E. coli Rosetta 2, pAH10R7Sumo3C, tag cut with 3C, lambda-phosphatase dephosphorylated

[2] = target: T2, SYMRK (intracellular domain; SYMRK-WT) (Lotus japonicus, UniProt Q8LKX1); assay: nanoDSF thermal stability, […] nm fluorescence; assay type: binding; details: 1 mM ATP, 5 mM MgCl2, pH 7.5, 15 min on ice, 25 to 95 °C at 1 °C/min
T2 construct: intracellular kinase region with C-terminal alpha-I motif (intracellular domain modelled as 545-923); E. coli Rosetta 2, pAH10R7Sumo3C, tag cut with 3C, lambda-phosphatase dephosphorylated
T2 sequence (Q8LKX1 545-923 limits assumed): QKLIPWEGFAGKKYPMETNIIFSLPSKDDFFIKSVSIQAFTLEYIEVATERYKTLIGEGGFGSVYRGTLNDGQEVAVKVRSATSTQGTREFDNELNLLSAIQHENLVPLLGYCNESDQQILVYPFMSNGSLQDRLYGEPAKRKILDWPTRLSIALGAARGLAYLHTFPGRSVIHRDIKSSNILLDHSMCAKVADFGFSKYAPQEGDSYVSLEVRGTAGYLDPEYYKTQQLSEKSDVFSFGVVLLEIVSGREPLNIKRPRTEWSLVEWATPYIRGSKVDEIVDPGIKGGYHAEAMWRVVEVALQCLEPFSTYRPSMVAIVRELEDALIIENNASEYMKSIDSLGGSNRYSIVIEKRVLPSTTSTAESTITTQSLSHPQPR

[3] = target: T3, SYMRK (intracellular domain; SYMRK-WT) (Lotus japonicus, UniProt Q8LKX1, S877D/S885D/S889D/S893D); assay: nanoDSF thermal stability, […] nm fluorescence; assay type: binding; details: 1 mM ATP, 5 mM MgCl2, pH 7.5, 15 min on ice, 25 to 95 °C at 1 °C/min
T3 construct: intracellular kinase region with C-terminal alpha-I motif (intracellular domain modelled as 545-923); E. coli Rosetta 2, pAH10R7Sumo3C, tag cut with 3C, lambda-phosphatase dephosphorylated

[4] = target: T2, SYMRK (intracellular domain; SYMRK-WT); assay: radioactive kinase assay, SDS-PAGE autoradiography; assay type: biochemical; details: labelled compound; 100 nCi, 5 mM MgCl2, MBP co-substrate and autophosphorylation, pH 7.5, room temperature, 1 h
[5] = target: T1, SYMRK (intracellular domain; SYMRK-WT); assay: radioactive kinase assay, SDS-PAGE autoradiography; assay type: biochemical; details: labelled compound; 100 nCi, 5 mM MgCl2, MBP co-substrate and autophosphorylation, pH 7.5, room temperature, 1 h

T1 sequence (Q8LKX1 entry or part of it S877A/S885A/S889A/S893A): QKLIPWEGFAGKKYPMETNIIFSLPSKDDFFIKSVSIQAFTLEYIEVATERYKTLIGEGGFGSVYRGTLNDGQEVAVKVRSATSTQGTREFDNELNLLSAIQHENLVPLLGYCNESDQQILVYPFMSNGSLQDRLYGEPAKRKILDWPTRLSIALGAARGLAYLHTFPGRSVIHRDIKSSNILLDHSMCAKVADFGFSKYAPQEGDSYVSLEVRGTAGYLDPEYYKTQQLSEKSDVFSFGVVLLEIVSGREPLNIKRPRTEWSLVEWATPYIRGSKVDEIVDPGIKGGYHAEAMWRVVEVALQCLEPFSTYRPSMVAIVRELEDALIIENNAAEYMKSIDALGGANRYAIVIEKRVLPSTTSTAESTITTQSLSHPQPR
T3 sequence (Q8LKX1 entry or part of it S877D/S885D/S889D/S893D): as the sequence (Q8LKX1 entry or part of it S877A/S885A/S889A/S893A) above, with A333D, A341D, A345D, A349D counted along it

| SMILES | thermal stabilization [1] | thermal stabilization [2] | thermal stabilization [3] | radioactive kinase assay, SDS-PAGE autoradiography [4] | radioactive kinase assay, SDS-PAGE autoradiography [5] |
| --- | --- | --- | --- | --- | --- |
| Nc1ncnc2c1ncn2[C@@H]1O[C@H](COP(=O)(O)OP(=O)(O)OP(=O)(O)O)[C@@H](O)[C@H]1O [ATP] | all proteins except the catalytically inactive SYMRK-K622E control showed ATP-binding capacity | all proteins except the catalytically inactive SYMRK-K622E control showed ATP-binding capacity | we purified SYMRK-4D and found it to be monodisperse, thermostable, ATP binding, and catalytically active | – | – |
| Nc1ncnc2c1ncn2[C@@H]1O[C@H](COP(=O)(O)OP(=O)(O)OP(=O)(O)O)[C@@H](O)[C@H]1O [γ-32P-labeled ATP] | – | – | – | SYMRK-4A and SYMRK-WT are active kinases capable of both autophosphorylation and transphosphorylation | SYMRK-4A and SYMRK-WT are active kinases capable of both autophosphorylation and transphosphorylation |
